Results published in PMC9133015 (Nature Communications, 2022).
“And” between values parts separate entries of the source, which are not always exact repeats. Equal entries are not always repeated. Where two headings read alike, the source gives them in different places.

Assays:
Assay in all cases: Kinase inhibitor specificity profiling (Reaction Biology Corporation)
Format in all cases: biochemical
Design in all cases: % Enzyme Activity (relative to DMSO controls): concentration or dose not given beside the values
[1] = molecular target: T1, panel of 370 protein kinases (Homo sapiens, UniProt P49336); settings: kinase CDK8/cyclin C
T1 construct: purchased Reaction Biology Corporation (assay service)
T1 sequence (P49336 whole entry): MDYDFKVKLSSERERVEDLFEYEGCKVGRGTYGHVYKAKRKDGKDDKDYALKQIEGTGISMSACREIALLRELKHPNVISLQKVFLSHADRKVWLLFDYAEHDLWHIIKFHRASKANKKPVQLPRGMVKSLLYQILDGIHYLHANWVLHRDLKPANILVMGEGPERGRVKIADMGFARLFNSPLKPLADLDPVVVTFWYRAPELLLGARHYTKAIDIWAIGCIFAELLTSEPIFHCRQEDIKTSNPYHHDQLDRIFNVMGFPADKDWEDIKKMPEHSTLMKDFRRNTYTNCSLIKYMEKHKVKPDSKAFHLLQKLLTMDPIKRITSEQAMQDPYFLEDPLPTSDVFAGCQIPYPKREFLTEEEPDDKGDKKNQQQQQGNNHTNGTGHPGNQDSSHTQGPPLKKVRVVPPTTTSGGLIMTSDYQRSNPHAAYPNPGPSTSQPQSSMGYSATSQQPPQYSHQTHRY

[2] = molecular target: T2, panel of 370 protein kinases (Homo sapiens, UniProt Q6P3R8); settings: 2 h, kinase NEK5; read-out: % Enzyme Activity (relative to DMSO controls)
T2 construct: purchased Reaction Biology Corporation (assay service)

[3] = molecular target: T3, panel of 370 protein kinases (Homo sapiens, UniProt Q9H2K8); settings: 2 h, kinase TAOK3/JIK; read-out: % Enzyme Activity (relative to DMSO controls)
T3 construct: purchased Reaction Biology Corporation (assay service)

[4] = molecular target: T4, panel of 370 protein kinases (Homo sapiens, UniProt Q9Y6M4); settings: kinase CK1G3
T4 construct: purchased Reaction Biology Corporation (assay service)
T4 sequence (Q9Y6M4 whole entry): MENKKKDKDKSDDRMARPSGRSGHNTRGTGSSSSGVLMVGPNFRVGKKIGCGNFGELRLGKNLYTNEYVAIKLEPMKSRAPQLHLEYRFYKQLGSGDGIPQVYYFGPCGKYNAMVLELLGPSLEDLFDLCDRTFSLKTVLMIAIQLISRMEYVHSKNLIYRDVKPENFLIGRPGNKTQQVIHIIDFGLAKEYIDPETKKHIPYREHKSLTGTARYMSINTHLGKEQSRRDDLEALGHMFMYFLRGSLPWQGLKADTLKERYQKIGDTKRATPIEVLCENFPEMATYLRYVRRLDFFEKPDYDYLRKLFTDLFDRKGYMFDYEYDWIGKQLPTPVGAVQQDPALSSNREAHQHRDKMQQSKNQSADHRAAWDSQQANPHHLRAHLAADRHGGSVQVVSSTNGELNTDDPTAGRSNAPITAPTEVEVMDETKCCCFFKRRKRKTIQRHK

[5] = molecular target: T5, panel of 370 protein kinases (Homo sapiens, UniProt P15056); settings: 2 h, kinase BRAF; read-out: % Enzyme Activity (relative to DMSO controls)
T5 construct: purchased Reaction Biology Corporation (assay service)

[6] = molecular target: T6, panel of 370 protein kinases (Homo sapiens, UniProt P04629); settings: 2 h, kinase TRKA; read-out: % Enzyme Activity (relative to DMSO controls)
T6 construct: purchased Reaction Biology Corporation (assay service)

[7] = molecular target: T7, panel of 370 protein kinases (Homo sapiens, UniProt P42685); settings: 2 h, kinase FRK/PTK5; read-out: % Enzyme Activity (relative to DMSO controls)
T7 construct: purchased Reaction Biology Corporation (assay service)

[8] = molecular target: T8, panel of 370 protein kinases (Homo sapiens, UniProt P08069); settings: 2 h, kinase IGF1R; read-out: % Enzyme Activity (relative to DMSO controls)
T8 construct: purchased Reaction Biology Corporation (assay service)

[9] = molecular target: T9, panel of 370 protein kinases (Homo sapiens, UniProt Q8N568); settings: 2 h, kinase DCAMKL2; read-out: % Enzyme Activity (relative to DMSO controls)
T9 construct: purchased Reaction Biology Corporation (assay service)

[10] = molecular target: T10, panel of 370 protein kinases (Homo sapiens, UniProt Q8IW41); settings: 2 h, kinase MAPKAPK5/PRAK; read-out: % Enzyme Activity (relative to DMSO controls)
T10 construct: purchased Reaction Biology Corporation (assay service)

[11] = molecular target: T11, panel of 370 protein kinases (Homo sapiens, UniProt P51817); settings: 2 h, kinase PRKX; read-out: % Enzyme Activity (relative to DMSO controls)
T11 construct: purchased Reaction Biology Corporation (assay service)
T11 sequence (P51817 whole entry): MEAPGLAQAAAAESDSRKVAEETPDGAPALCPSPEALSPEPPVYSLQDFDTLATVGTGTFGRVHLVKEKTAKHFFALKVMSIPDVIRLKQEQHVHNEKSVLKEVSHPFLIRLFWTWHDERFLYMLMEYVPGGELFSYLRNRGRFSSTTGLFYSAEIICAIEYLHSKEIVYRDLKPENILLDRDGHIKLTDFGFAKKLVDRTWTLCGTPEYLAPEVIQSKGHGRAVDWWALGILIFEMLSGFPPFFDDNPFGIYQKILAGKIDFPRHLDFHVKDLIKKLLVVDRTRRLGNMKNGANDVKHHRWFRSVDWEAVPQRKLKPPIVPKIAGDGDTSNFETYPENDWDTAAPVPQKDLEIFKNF

[12] = molecular target: T12, panel of 370 protein kinases (Homo sapiens, UniProt Q9P286); settings: 2 h, kinase PAK5; read-out: % Enzyme Activity (relative to DMSO controls)
T12 construct: purchased Reaction Biology Corporation (assay service)

[13] = molecular target: T13, panel of 370 protein kinases (Homo sapiens, UniProt P34947); settings: 2 h, kinase GRK5; read-out: % Enzyme Activity (relative to DMSO controls)
T13 construct: purchased Reaction Biology Corporation (assay service)

[14] = molecular target: T14, panel of 370 protein kinases (Homo sapiens, UniProt P30291); settings: 2 h, kinase WEE1; read-out: % Enzyme Activity (relative to DMSO controls)
T14 construct: purchased Reaction Biology Corporation (assay service)

[15] = molecular target: T15, panel of 370 protein kinases (Homo sapiens, UniProt P50750); settings: 2 h, read-out: % Enzyme Activity (relative to DMSO controls)
T15 construct: purchased Reaction Biology Corporation (assay service)
T15 sequence (P50750 whole entry): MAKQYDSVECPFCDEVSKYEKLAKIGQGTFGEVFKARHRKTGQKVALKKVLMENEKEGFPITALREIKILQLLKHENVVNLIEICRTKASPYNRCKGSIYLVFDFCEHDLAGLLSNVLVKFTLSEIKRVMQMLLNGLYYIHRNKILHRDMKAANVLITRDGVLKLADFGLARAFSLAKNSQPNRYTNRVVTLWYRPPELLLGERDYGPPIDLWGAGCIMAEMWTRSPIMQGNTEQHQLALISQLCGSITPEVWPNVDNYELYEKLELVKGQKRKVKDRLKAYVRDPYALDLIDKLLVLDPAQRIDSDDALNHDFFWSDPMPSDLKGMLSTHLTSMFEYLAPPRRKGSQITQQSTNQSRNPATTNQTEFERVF

[16] = molecular target: T16, panel of 370 protein kinases (Homo sapiens, UniProt P08922); settings: 2 h, kinase ROS/ROS1; read-out: % Enzyme Activity (relative to DMSO controls)
T16 construct: purchased Reaction Biology Corporation (assay service)
T16 sequence (P08922 28-2347): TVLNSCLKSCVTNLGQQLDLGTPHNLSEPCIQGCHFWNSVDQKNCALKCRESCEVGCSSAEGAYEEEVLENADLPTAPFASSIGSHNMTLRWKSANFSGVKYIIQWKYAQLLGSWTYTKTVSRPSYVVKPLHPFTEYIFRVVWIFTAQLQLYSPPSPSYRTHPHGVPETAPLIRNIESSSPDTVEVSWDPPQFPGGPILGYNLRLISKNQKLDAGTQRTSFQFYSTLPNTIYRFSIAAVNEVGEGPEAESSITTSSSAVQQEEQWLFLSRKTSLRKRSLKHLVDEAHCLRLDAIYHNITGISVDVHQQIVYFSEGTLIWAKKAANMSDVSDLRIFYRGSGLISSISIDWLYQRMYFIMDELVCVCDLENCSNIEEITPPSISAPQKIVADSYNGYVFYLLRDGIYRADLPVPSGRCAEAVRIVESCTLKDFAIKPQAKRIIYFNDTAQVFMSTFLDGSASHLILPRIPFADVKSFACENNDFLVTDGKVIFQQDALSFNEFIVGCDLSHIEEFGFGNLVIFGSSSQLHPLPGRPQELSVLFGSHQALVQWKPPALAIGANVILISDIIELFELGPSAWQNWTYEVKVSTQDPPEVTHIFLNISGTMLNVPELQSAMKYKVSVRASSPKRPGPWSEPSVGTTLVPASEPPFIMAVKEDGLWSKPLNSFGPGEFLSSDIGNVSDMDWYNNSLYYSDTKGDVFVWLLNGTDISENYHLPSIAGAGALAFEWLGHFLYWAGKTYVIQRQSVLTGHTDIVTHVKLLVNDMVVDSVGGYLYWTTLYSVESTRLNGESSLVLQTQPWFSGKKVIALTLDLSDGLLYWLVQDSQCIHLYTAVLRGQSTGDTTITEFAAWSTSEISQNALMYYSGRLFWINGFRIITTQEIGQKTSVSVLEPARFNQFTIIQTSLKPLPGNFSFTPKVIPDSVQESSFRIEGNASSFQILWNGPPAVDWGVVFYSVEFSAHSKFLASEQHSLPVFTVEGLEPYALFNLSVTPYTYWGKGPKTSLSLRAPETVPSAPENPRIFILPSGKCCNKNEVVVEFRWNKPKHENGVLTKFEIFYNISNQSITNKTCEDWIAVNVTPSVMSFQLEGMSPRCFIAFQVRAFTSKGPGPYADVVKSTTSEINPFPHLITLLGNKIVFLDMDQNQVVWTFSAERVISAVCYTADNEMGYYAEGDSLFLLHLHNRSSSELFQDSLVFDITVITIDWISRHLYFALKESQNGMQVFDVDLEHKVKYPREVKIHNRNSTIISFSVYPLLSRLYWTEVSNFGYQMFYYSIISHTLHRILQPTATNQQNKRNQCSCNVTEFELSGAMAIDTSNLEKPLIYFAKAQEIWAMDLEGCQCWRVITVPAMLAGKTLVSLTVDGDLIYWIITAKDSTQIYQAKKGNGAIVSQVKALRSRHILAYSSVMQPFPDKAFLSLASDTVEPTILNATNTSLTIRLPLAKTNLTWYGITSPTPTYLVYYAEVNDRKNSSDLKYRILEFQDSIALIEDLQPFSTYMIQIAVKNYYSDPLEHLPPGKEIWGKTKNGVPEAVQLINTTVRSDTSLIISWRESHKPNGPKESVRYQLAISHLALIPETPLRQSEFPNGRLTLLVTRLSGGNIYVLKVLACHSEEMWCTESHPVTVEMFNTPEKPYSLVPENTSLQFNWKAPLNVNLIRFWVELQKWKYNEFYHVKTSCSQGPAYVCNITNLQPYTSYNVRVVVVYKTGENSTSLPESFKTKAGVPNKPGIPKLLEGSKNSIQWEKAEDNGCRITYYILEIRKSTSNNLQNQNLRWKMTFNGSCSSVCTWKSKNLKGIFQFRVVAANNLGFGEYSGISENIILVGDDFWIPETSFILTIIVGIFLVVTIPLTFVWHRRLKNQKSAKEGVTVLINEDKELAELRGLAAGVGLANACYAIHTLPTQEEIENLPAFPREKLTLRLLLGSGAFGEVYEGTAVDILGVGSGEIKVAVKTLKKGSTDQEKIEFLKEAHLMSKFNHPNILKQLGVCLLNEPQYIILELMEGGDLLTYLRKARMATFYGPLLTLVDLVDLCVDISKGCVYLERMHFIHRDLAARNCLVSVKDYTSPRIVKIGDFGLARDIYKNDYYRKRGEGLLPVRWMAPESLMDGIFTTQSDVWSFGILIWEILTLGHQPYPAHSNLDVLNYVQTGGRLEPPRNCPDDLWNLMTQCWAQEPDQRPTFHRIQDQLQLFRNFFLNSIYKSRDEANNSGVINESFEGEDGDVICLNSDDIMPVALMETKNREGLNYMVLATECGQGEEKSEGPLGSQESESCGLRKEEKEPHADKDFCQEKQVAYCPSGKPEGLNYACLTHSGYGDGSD

[17] = molecular target: T17, panel of 370 protein kinases (Homo sapiens, UniProt Q8IWQ3); settings: 2 h, kinase BRSK2; read-out: % Enzyme Activity (relative to DMSO controls)
T17 construct: purchased Reaction Biology Corporation (assay service)

[18] = molecular target: T18, panel of 370 protein kinases (Homo sapiens, UniProt Q96S53); settings: 2 h, kinase TESK2; read-out: % Enzyme Activity (relative to DMSO controls)
T18 construct: purchased Reaction Biology Corporation (assay service)
T18 sequence (Q96S53 whole entry): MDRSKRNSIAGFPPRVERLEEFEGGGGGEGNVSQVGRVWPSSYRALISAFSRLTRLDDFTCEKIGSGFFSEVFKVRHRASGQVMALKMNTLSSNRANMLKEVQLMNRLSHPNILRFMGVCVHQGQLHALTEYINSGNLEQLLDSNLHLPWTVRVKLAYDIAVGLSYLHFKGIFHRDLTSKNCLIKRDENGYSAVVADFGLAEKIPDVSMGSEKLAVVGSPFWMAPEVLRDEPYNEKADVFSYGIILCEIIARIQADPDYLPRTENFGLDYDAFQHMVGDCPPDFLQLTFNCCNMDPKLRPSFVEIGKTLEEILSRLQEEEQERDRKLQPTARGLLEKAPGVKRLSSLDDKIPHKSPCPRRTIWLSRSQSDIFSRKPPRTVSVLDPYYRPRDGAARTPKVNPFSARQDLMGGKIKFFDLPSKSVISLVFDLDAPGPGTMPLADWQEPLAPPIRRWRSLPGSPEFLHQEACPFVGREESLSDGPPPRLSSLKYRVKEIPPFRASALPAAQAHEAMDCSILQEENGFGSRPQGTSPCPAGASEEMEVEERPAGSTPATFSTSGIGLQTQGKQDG

[19] = molecular target: T19, panel of 370 protein kinases (Homo sapiens, UniProt Q9P289); settings: 2 h, kinase MST4; read-out: % Enzyme Activity (relative to DMSO controls)
T19 construct: purchased Reaction Biology Corporation (assay service)

[20] = molecular target: T20, panel of 370 protein kinases (Homo sapiens, UniProt P31749); settings: 2 h, kinase AKT1; read-out: % Enzyme Activity (relative to DMSO controls)
T20 construct: purchased Reaction Biology Corporation (assay service)

[21] = molecular target: T21, panel of 370 protein kinases (Homo sapiens, UniProt Q9HCP0); settings: kinase CK1g1
T21 construct: purchased Reaction Biology Corporation (assay service)
T21 sequence (Q9HCP0 whole entry): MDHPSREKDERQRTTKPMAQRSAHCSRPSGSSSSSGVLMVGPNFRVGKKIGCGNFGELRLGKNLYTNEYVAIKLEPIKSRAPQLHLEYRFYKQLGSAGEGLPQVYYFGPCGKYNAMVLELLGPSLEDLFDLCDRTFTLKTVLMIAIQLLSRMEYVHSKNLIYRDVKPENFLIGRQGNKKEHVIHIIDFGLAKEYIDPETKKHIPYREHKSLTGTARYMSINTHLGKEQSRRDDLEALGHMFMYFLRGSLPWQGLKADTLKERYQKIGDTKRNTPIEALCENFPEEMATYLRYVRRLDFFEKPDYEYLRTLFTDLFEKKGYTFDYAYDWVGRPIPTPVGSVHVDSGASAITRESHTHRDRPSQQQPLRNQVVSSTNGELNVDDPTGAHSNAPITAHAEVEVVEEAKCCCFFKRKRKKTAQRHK

## CCN1CCN(C(=O)c2ccc(Nc3ncc(F)c(-c4ccc5nc(N(C)C)sc5c4)n3)nc2)CC1 [YK-2-69]
[1]
  % Enzyme Activity (relative to DMSO controls): 57.28% and 56.07%
[2]
  remaining activity at 1 µM: 72.1%
[3]
  remaining activity at 1 µM: 104%
[4]
  % Enzyme Activity (relative to DMSO controls): 114.34% and 110.21%
[5]
  remaining activity at 1 µM: 95.2%
[6]
  remaining activity at 1 µM: 104%
[7]
  remaining activity at 1 µM: 108%
[8]
  remaining activity at 1 µM: 102%
[9]
  remaining activity at 1 µM: 108%
[10]
  remaining activity at 1 µM: 98.5%
[11]
  remaining activity at 1 µM: 95.1%
[12]
  remaining activity at 1 µM: 101%
[13]
  remaining activity at 1 µM: 106%
[14]
  remaining activity at 1 µM: 98.5%
[15]; kinase CDK9/CYCLIN K
  remaining activity at 1 µM: 96.3%
[15]; kinase CDK9/cyclin T1
  remaining activity at 1 µM: 90.8%
[15]; kinase CDK9/cyclin T2
  remaining activity at 1 µM: 96.8%
[16]
  remaining activity at 1 µM: 79.3%
[17]
  remaining activity at 1 µM: 96.3%
[18]
  remaining activity at 1 µM: 98.2%
[19]
  remaining activity at 1 µM: 98.4%
[20]
  remaining activity at 1 µM: 98.3%
[21]
  % Enzyme Activity (relative to DMSO controls): 102.35% and 96.73%
